In the test the target is T1, yeast α-GLy (α-glucosidase, Sigma G0660) (Saccharomyces cerevisiae, UniProt P53341).
T1 construct: purchased Sigma G0660
The test can be described thus: biochemical. Type of test: biochemical. The conditions noted are these: yeast α-glucosidase, 37°C, pH 6.8. How it is done: S1. Materials and Methods […]
glucosidase inhibition assay. α-Glucosidase enzyme inhibition assay was carried out in a 96-well microplate. The method’s principle based on the hydrolyzed reaction of 4-nitrophenyl-α-D-glucopiranoside with α-glucosidase enzyme into yellow 4- […]
p-Nitrophenyl α-D-Glucoside a- Gl ucosidas e α-D-Glucose + p- Nitrophenol α-Glucosidase inhibitory activity assay was performed following the modified method of Pistia Brueggeman and Hollingsworth with slight modification. Quinopimaric […]
concentrations of 256, 64, 16, 4 and 1 µg/mL. In a 96-well plate, a reaction mixture containing 20 μL of phosphate buffer (100 mM; pH 6.8), 20 μL of α-glucosidase (0.3 U/mL, Sigma G0660) (this concentration was determined by a series of α-glucosidase […]
linearity between the enzyme concentration and the absorbance of yellow color mixture after reaction which was approximately 5-fold higher than the back ground and at least […]
concentrations was pre-incubated for 10 min at 37°C. Then 20 μL of […] p-nitrophenyl α-D-glucopyranoside (Sigma N1377) was added to the mixture as a substrate. After further incubation at 37°C for 30 min, the reaction was stopped by adding 80 μL of 0.1 […]
solution were prepared using the phosphate buffer […]; pH 6.8. […]
as a positive control and water as negative control. The yellow color produced was quantitated by colorimetric analysis and reading the absorbance at 410 nm. Each experiment was performed in triplicates, along with appropriate blanks. The solvent DMSO was use as negative control to evaluate its effect on α-glucosidase activity. […]
or substrate in negative control. Back ground was determined by volume of buffer as […]
The % inhibition has been obtained using the formula:
% inhibition = {Absorbance (control) –Absorbance (sample)}/Absorbance (control) IC50 value is defined as the concentration of samples inhibiting 50% of α-glucosidase activity under the stated assay conditions. […]

[1] abbreviates: IC50 ± SE, α-glucosidase inhibition.
[2] abbreviates: read-out: IC50 ± SE, α-glucosidase inhibition.

Like-named read-outs stand apart in the source and are kept apart here. Bounds are passed on as bounds.

T1 sequence (P53341 whole entry): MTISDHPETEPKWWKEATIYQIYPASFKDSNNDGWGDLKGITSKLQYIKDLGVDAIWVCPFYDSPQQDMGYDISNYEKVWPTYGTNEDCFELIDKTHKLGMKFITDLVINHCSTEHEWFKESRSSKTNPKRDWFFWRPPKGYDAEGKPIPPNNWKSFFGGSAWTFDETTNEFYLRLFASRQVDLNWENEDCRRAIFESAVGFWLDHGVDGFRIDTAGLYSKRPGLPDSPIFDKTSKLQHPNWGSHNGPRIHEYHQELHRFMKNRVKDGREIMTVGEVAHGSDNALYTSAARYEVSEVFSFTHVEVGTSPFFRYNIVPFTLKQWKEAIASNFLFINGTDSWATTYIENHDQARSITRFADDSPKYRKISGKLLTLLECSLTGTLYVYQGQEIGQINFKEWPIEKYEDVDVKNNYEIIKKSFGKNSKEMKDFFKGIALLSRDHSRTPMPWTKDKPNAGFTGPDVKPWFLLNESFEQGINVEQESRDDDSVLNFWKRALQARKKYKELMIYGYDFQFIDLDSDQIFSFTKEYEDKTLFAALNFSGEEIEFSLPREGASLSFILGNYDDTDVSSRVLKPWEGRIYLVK

As for `COC(=O)[C@]1(C)CCC[C@]2(C)[C@H]3C[C@H]4C(C(C)C)=C[C@]3(CC[C@H]21)[C@@H]1C(=O)CC[C@H](OC(=O)c2ccccc2C(=O)O)[C@@H]14` [Compound 20], the IC50 under setting [1] is greater than 255 µM.

As to `COC(=O)[C@]1(C)CCC[C@]2(C)[C@H]3C[C@@H]4[C@H]5[C@@H]6CCC(=NO)[C@H]5[C@@]3(CC[C@H]21)C[C@@]4(C(C)C)O6` [Compound 4], the IC50 under setting [1] is greater than 255 µM.

As to `COC(=O)[C@]1(C)CCC[C@]2(C)[C@H]3C[C@H]4C(C(C)C)=C[C@]3(CC[C@H]21)[C@H]1[C@@H]4[C@@H](OC(=O)c2cccnc2)CC[C@@H]1OC(=O)c1cccnc1` [Compound 24], the IC50 under setting [1] was greater than 255 µM.

Compound `COC(=O)[C@]1(C)CCC[C@]2(C)[C@H]3C[C@H]4C(C(C)C)=C[C@]3(CC[C@H]21)[C@H]1[C@@H]4[C@@H](OCCC#N)CC[C@@H]1OCCC#N` [Compound 22] displayed an IC50 under setting [1] greater than 255 µM.

`COC(=O)[C@]1(C)CCC[C@]2(C)[C@H]3C[C@H]4C(C(C)C)=C[C@]3(CC[C@H]21)[C@@H]1C(=O)CC[C@H](O)[C@@H]14` [Compound 14]: under setting [1], the IC50 was greater than 255 µM.

The compound `COC(=O)[C@]1(C)CCC[C@]2(C)[C@H]3C[C@H]4C(C(C)C)=C[C@]3(CC[C@H]21)[C@@H]1C(=O)CC[C@H](OC(=O)CCCC(=O)O)[C@@H]14` [Compound 18] showed an IC50 under setting [1] greater than 255 µM.

In the case of `CC(C)C1=CC23CCC4C(C)(C(=O)O)CCCC4(C)C2CC1c1c(O)ccc(O)c13` (centres unmarked) [Compound 49], the IC50 under setting [1] is greater than 255 µM.

As to `COC(=O)[C@]1(C)CCC[C@]2(C)[C@H]3C[C@@H]4[C@H]5[C@@H]6Cc7c([nH]c8ccccc78)[C@H]5[C@@]3(CC[C@H]21)C[C@@]4(C(C)C)O6` [Compound 33], under setting [1], the half-maximal inhibitory concentration (IC50) amounted to 65.98 ± 0.03 µM.

Take `COC(=O)c1c(C)[nH]c2c3c(c(O)cc12)[C@H]1C[C@@H]2[C@@]4(C)CCC[C@@](C)(C(=O)OC)[C@@H]4CC[C@@]32C=C1C(C)C` [Compound 36]: the IC50 under setting [2] is 8.94 ± 0.96 µM.

On to `COC(=O)[C@]1(C)CCC[C@]2(C)[C@H]3C[C@@H]4[C@H]5[C@@H]6CCC(=O)[C@H]5[C@@]3(CC[C@H]21)C[C@@]4(C(C)C)O6` [Compound 3, 1β,13α-epoxy methyldihydroquinopimarate], for which the IC50 under setting [1] is greater than 255 µM.

As to `COC(=O)c1c(C)[nH]c2c3c(c(O)cc12)[C@H]1C[C@@H]2[C@@]4(C)CCC[C@@](C)(C(=O)O)[C@@H]4CC[C@@]32C=C1C(C)C` [Compound 35], the IC50 under setting [2] was determined as 7.95 ± 0.2 µM.

As for `COC(=O)[C@]1(C)CCC[C@]2(C)[C@H]3C[C@@H]4[C@H]5[C@@H]6CCC(=O)N[C@H]5[C@@]3(CC[C@H]21)C[C@@]4(C(C)C)O6` [Compound 39], the half-inhibitory concentration (IC50) under setting [1] turned out to be 44.8 ± 0.96 µM.

Turning to `CCOC(=O)c1c(C)[nH]c2c3c(c(O)cc12)[C@H]1C[C@@H]2[C@@]4(C)CCC[C@@](C)(C(=O)OC)[C@@H]4CC[C@@]32C=C1C(C)C` [Compound 43, Methyl 1-Hydroxy-13-Isopropyl-1′-(Ethoxycarbonyl)-7,10a,2′-Trimethyl-5,6,6b,7,8,9,10,10a,10b,11,12,13-Dodecahydro-12,4b-Ethenophenanthro-[2,1-g]indole-7-Carboxylate], under setting [1], the half-maximal inhibitory concentration (IC50) is greater than 255 µM.

For the compound `COC(=O)[C@]1(C)CCC[C@]2(C)[C@H]3C[C@H]4C(C(C)C)=C[C@]3(CC[C@H]21)[C@@H]1C(=O)CC[C@H](OCCC#N)[C@@H]14` [Compound 16], the IC50 under setting [1] is greater than 255 µM.

In turn, `COC(=O)[C@]1(C)CCC[C@]2(C)[C@H]3C[C@@H]4[C@H]5[C@@H]6CC(Br)C(=O)[C@H]5[C@@]3(CC[C@H]21)C[C@@]4(C(C)C)O6` (some centres unmarked) [Compound 25] yielded an IC50 under setting [1] greater than 255 µM.

As for `COC(=O)C(CCSC)NC(=O)[C@]1(C)CCC[C@]2(C)[C@H]3C[C@H]4C(C(C)C)=C[C@]3(CC[C@H]21)[C@@H]1C(=O)CCC(=O)[C@@H]14` (some centres unmarked) [Compound 13], the IC50 under setting [1] is greater than 255 µM.

Regarding `COC(=O)c1c(C)[nH]c2c3c(c(OC(C)=O)cc12)[C@H]1C[C@@H]2[C@@]4(C)CCC[C@@](C)(C(=O)OC)[C@@H]4CC[C@@]32C=C1C(C)C` [Compound 37], the IC50 under setting [2] came to 7.28 ± 0.4 µM.

The values above are taken from PMC9655717, “New Molecules of Diterpene Origin with Inhibitory Properties toward α-Glucosidase” (International Journal of Molecular Sciences, 2022).
